These are literature values, as cited in US6482863B2, “Insect repellant formulation deliverable by piezoelectric device” (S. C. Johnson & Son, Inc., priority 2000, dated 2002).

The structures appear in SMILES notation.

The conditions of data set [1]: at 20° C.
For data set [2] the following is noted: at 25° C.

As to `COCC(C)O` (stereo not shown) [Propylene glycol methyl ether], the “vapor pressure of solvent” value in data set [1] is 8.1 mm Hg.

Take `COCC(C)OCC(C)OC` (stereo not shown) [Dipropylene glycol dimethyl ether]: the water solubility was 35 g/100 ml water. The viscosity of solvent in data set [2] is 1 cp. Further, in data set [1], the “vapor pressure of solvent” value is 0.55 mm Hg.
